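Values below derive from 48-hour exposures of cells grown in 96-well plates, with endpoints linearly interpolated between the two concentrations bracketing the appropriate inhibition level. Abbreviation: GI50, concentration required for 50% inhibition of growth. At the TGI there is no net growth.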
Columns and labels:
Experiment in all cases: NCI-60 cell line screen, 48 h
[1] = test system: SF-539 CNS
[2] = test system: HCT-116 colon
[3] = test system: UO-31 renal
[4] = test system: A549 NSCLC
[5] = test system: CCRF-CEM leukemia
[6] = test system: MDA-MB-435
[7] = test system: OVCAR-5 ovarian
[8] = test system: OVCAR-3 ovarian
[9] = test system: T-47D breast
[10] = test system: SF-268 CNS
[11] = test system: MALME-3M melanoma
[12] = test system: SK-MEL-5 melanoma
[13] = test system: SF-295 CNS
[14] = test system: RPMI-8226 leukemia
[15] = test system: SNB-19 CNS
[16] = test system: HCC-2998 colon
[17] = test system: DU-145 prostate
[18] = test system: OVCAR-4 ovarian
[19] = test system: SW-620 colon
[20] = test system: MCF7 breast
[21] = test system: IGROV1 ovarian
[22] = test system: M14 melanoma
[23] = test system: NCI-H23 lung
[24] = test system: HOP-62 NSCLC
[25] = test system: HCT-15 colon
[26] = test system: UACC-62 melanoma
[27] = test system: CAKI-1 renal
[28] = test system: MOLT-4 leukemia
[29] = test system: SK-OV-3 ovarian
[30] = test system: COLO 205 colon
[31] = test system: U251 CNS
[32] = test system: SK-MEL-2 melanoma
[33] = test system: HL-60(TB) leukemia
[34] = test system: SR leukemia
[35] = test system: HOP-92 NSCLC
[36] = test system: LOX IMVI melanoma
[37] = test system: SK-MEL-28 melanoma
[38] = test system: BT-549 breast
[39] = test system: A498 renal
[40] = test system: SN12C renal
[41] = test system: KM12 colon
[42] = test system: 786-0 renal
[43] = test system: TK-10 renal
[44] = test system: NCI-H522 lung
[45] = test system: HS 578T breast
[46] = test system: NCI-H460 lung
[47] = test system: EKVX NSCLC
[48] = test system: MDA-MB-231 breast
[49] = test system: RXF 393 renal
[50] = test system: SNB-75 CNS
[51] = test system: HT29 colon
[52] = test system: NCI/ADR-RES ovarian
[53] = test system: UACC-257 melanoma
[54] = test system: OVCAR-8 ovarian
[55] = test system: ACHN renal
[56] = test system: K-562 leukemia
[57] = test system: NCI-H226 lung
[58] = test system: PC-3 prostate

SMILES: O=C1NC(=O)C(c2cccc(Cl)c2)=C1Nc1ccc(O)c(Cl)c1
- GI50 [1]: 7.71 µM
- TGI [1]: > 21.9 µM
- GI50 [2]: 9.6 µM
- TGI [2]: > 25 µM
- GI50 [3]: 7.93 µM
- TGI [3]: > 25 µM
- GI50 [4]: 9.88 µM
- TGI [4]: > 25 µM
- GI50 [5]: 11 µM
- TGI [5]: > 25 µM
- GI50 [6]: 3.28 µM
- TGI [6]: > 25 µM
- GI50 [7]: 22.4 µM
- TGI [7]: > 25 µM
- GI50 [8]: 7.86 µM
- TGI [8]: > 21.9 µM
- GI50 [9]: 7.98 µM
- TGI [9]: > 23.1 µM
- GI50 [10]: 11.2 µM
- TGI [10]: > 25 µM
- GI50 [11]: 15.9 µM
- TGI [11]: > 25 µM
- GI50 [12]: 5.46 µM
- TGI [12]: 18.6 µM
- GI50 [13]: 11.6 µM
- TGI [13]: > 25 µM
- GI50 [14]: 14 µM
- TGI [14]: > 25 µM
- GI50 [15]: 15.9 µM
- TGI [15]: > 25 µM
- GI50 [16]: 24.6 µM
- TGI [16]: > 25 µM
- GI50 [17]: 14.1 µM
- TGI [17]: > 25 µM
- GI50 [18]: 8.98 µM
- TGI [18]: > 25 µM
- GI50 [19]: 8.73 µM
- TGI [19]: > 25 µM
- GI50 [20]: 10.4 µM
- TGI [20]: > 25 µM
- GI50 [21]: 12.9 µM
- TGI [21]: > 25 µM
- GI50 [22]: 12.1 µM
- TGI [22]: > 25 µM
- GI50 [23]: 12.9 µM
- TGI [23]: > 25 µM
- GI50 [24]: 9.57 µM
- TGI [24]: 24.3 µM
- GI50 [25]: 8.66 µM
- TGI [25]: > 25 µM
- GI50 [26]: 7.63 µM
- TGI [26]: > 25 µM
- GI50 [27]: 7.72 µM
- TGI [27]: > 25 µM
- GI50 [28]: 15 µM
- TGI [28]: > 25 µM
- GI50 [29]: 6.62 µM
- TGI [29]: 16.2 µM
- GI50 [30]: > 20.1 µM
- TGI [30]: > 25 µM
- GI50 [31]: 12.5 µM
- TGI [31]: > 25 µM
- GI50 [32]: 7.91 µM
- TGI [32]: 22.5 µM
- GI50 [33]: 8.75 µM
- TGI [33]: > 25 µM
- GI50 [34]: 11.3 µM
- TGI [34]: > 25 µM
- GI50 [35]: 5.76 µM
- TGI [35]: > 25 µM
- GI50 [36]: 8.85 µM
- TGI [36]: > 25 µM
- GI50 [37]: 13.7 µM
- TGI [37]: > 25 µM
- GI50 [38]: 11.3 µM
- TGI [38]: > 25 µM
- GI50 [39]: 11.1 µM
- TGI [39]: > 25 µM
- GI50 [40]: 9.42 µM
- TGI [40]: > 25 µM
- GI50 [41]: 10.5 µM
- TGI [41]: > 25 µM
- GI50 [42]: 12.1 µM
- TGI [42]: > 25 µM
- GI50 [43]: 8.66 µM
- TGI [43]: > 25 µM
- GI50 [44]: 6.98 µM
- TGI [44]: > 21 µM
- GI50 [45]: 5.11 µM
- TGI [45]: 19.3 µM
- GI50 [46]: 8.91 µM
- TGI [46]: > 25 µM
- GI50 [47]: 10.6 µM
- TGI [47]: > 25 µM
- GI50 [48]: 16.1 µM
- TGI [48]: > 25 µM
- GI50 [49]: 6.4 µM
- TGI [49]: 24.8 µM
- GI50 [50]: 6.96 µM
- TGI [50]: > 20.4 µM
- GI50 [51]: 10 µM
- TGI [51]: > 25 µM
- GI50 [52]: 10.4 µM
- TGI [52]: > 25 µM
- GI50 [53]: > 25 µM
- TGI [53]: > 25 µM
- GI50 [54]: 14 µM
- TGI [54]: > 25 µM
- GI50 [55]: 11.4 µM
- TGI [55]: > 25 µM
- GI50 [56]: 11.7 µM
- TGI [56]: > 25 µM
- GI50 [57]: 12 µM
- TGI [57]: > 25 µM
- GI50 [58]: 12.2 µM
- TGI [58]: > 25 µM
